What all share (type): cell-based
In experiment [1] the test system is Pseudomonas aeruginosa ATCC27853. As to the kind of experiment: MIC broth microdilution, Pseudomonas aeruginosa ATCC27853 (APAE). To be noted: 35° C., 18-24 hr, read-out: Minimum Inhibitory Concentrations (MICs) APAE. The method, then: (§1) Bacterial isolates were cultivated from −70° C. frozen stocks by overnight passages at 35° C. in ambient air on Mueller-Hinton agar (Beckton Dickinson, Franklin Lakes, N.J.). Clinical isolates tested were obtained from various geographically diverse hospitals in the US and abroad (Focus Diagnostics, Herndon, Va. and JMI, North Liberty, Iowa). Quality control strains were from the American Type Culture Collection (ATCC; Rockville, Md.).
(§2) Minimum Inhibitory Concentrations (MICs) were determined by the broth microdilution method in accordance with the Clinical and Laboratory Standards Institute (CLSI) guidelines. In brief, organism suspensions were adjusted to a 0.5 McFarland standard to yield a final inoculum between 3×10^5 and 7×10^5 colony-forming units (CFU)/mL. Drug dilutions and inocula were made in sterile, cation adjusted Mueller-Hinton Broth (Beckton Dickinson). An inoculum volume of 100 μL was added to wells containing 100 μL of broth with 2-fold serial dilutions of drug. All inoculated microdilution trays were incubated in ambient air at 35° C. for 18-24 hr. Following incubation, the lowest concentration of the drug that prevented visible growth (OD600 nm<0.05) was recorded as the MIC. Performance of the assay was monitored by the use of laboratory quality-control strains and levofloxacin, a compound with a defined MIC spectrum, in accordance with CLSI guidelines. Typically, compounds of the present invention have MIC values of 0.03-32 μg/mL.
A general note: In broth dilution the organism is exposed to a series of concentrations in liquid medium.

For experiment [2], the system named is Escherichia coli ATCC25922. Description: MIC broth microdilution, Escherichia coli ATCC25922 (AECO). To be noted: 35° C., 18-24 hr, read-out: Minimum Inhibitory Concentrations (MICs) AECO. The method, then:
as §1, §2

For experiment [3], the system named is Klebsiella pneumonia ATCC43816. As to the kind of experiment: MIC broth microdilution, Klebsiella pneumonia ATCC43816 (AKPN). To be noted: Klebsiella pneumoniae, 35° C., 18-24 hr, read-out: Minimum Inhibitory Concentrations (MICs) AKPN. The method, then:
as §1, §2

In brackets after ≈: the same amount, converted by molar mass.

Regarding `CC(C)([C@H](NC(=O)c1ccc(C#CC#C[C@H]2C[C@@H]2CO)cc1)C(=O)NO)S(C)(=O)=O` (stereo in doubt) [Compound 5, N—((R)-1-(hydroxyamino)-3-methyl-3-(methylsulfonyl)-1-oxobutan-2-yl)-4-(((trans)-2-(hydroxymethyl)cyclopropyl)buta-1,3-diynyl)benzamide], the MIC in experiment [1], in experiment [2] and in experiment [3] was ≤ 1 µg/mL in each case.
`C[S+]([O-])C(C)(C)[C@H](NC(=O)c1ccc(C#CC#C[C@H]2C[C@@H]2CO)cc1)C(=O)NO` (stereo in doubt) [Compound 4, N-((2R)-1-(hydroxyamino)-3-methyl-3-(methylsulfinyl)-1-oxobutan-2-yl)-4-(((trans)-2-(hydroxymethyl)cyclopropyl)buta-1,3-diynyl)benzamide]: the MIC was ≤ 1 µg/mL in experiment [1], ≤ 1 µg/mL in experiment [2] and 8 to 16 µg/mL (≈ 19.2 to 38.4 µM) in experiment [3].
Consider `CSC(C)(C)[C@H](NC(=O)c1ccc(C#CC#C[C@H]2C[C@@H]2CO)cc1)C(=O)NO` (stereo in doubt) [Compound 3, N—((R)-1-(hydroxyamino)-3-methyl-3-(methylthio)-1-oxobutan-2-yl)-4-(((trans)-2-(hydroxymethyl)cyclopropyl)buta-1,3-diynyl)benzamide], for which the MIC in experiment [1], in experiment [2] and in experiment [3] was ≤ 1 µg/mL throughout.
Consider `CNC(=O)C(NC(=O)c1ccc(C#CC#C[C@@H]2C[C@H]2CO)cc1)C(=O)NO` (stereo partly drawn) [Compound 8], for which the MIC in experiment [1], in experiment [2] and in experiment [3] was ≤ 1 µg/mL each time.
Take `O=C(NO)c1cc(-c2ccc(C#CC#C[C@@H]3C[C@H]3CO)cc2)ccn1` (relative stereo) [Compound 2, N-hydroxy-4-(4-(((trans)-2-(hydroxymethyl)cyclopropyl)buta-1,3-diynyl)phenyl)picolinamide]: the MIC in experiment [1] is 8 to 16 µg/mL (≈ 24.1 to 48.1 µM); in experiment [2], ≤ 1 µg/mL; in experiment [3], 8 to 16 µg/mL (≈ 24.1 to 48.1 µM).
In the case of `CC(C)(N)[C@H](NC(=O)c1ccc2cc(C#CC3C[C@@H]3CO)ccc2c1)C(=O)NO` (stereo partly drawn) [Compound 6, N—((S)-3-amino-1-(hydroxyamino)-3-methyl-1-oxobutan-2-yl)-6-(((trans)-2-(hydroxymethyl)cyclopropyl)ethynyl)-2-naphthamide], the MIC in experiment [1] was ≤ 1 µg/mL; in experiment [2], 1 to 8 µg/mL (≈ 2.53 to 20.2 µM); in experiment [3], 8 to 16 µg/mL (≈ 20.2 to 40.5 µM).
Taken in the same sequence, the figures for `O=C(NO)c1cc(-c2ccc(C#CC#C[C@@H]3C[C@H]3CO)cc2)nc2ccncc12` (relative stereo) [Compound 1, N-hydroxy-2-(4-(((trans)-2-(hydroxymethyl)cyclopropyl)buta-1,3-diynyl)phenyl)-1,6-naphthyridine-4-carboxamide] were 8 to 16 µg/mL (≈ 20.9 to 41.7 µM), ≤ 1 µg/mL and ≤ 1 µg/mL.
Taken in the same sequence, the figures for `CC(CCc1ccc(C#CC#C[C@H]2C[C@@H]2CO)cc1)(C(=O)NO)S(C)(=O)=O` (relative stereo) [Compound 9, N-hydroxy-4-(4-(((trans)-2-(hydroxymethyl)cyclopropyl)buta-1,3-diynyl)phenyl)-2-methyl-2-(methylsulfonyl)butanamide] were ≤ 1 µg/mL, ≤ 1 µg/mL and 1 to 8 µg/mL (≈ 2.57 to 20.5 µM).
On the same counts, the results for `CC(C)(N)[C@H](NC(=O)c1cc2ccc(C#CC3C[C@H]3CO)cc2s1)C(=O)NO` (stereo partly drawn) [Compound 7, N—((S)-3-amino-1-(hydroxyamino)-3-methyl-1-oxobutan-2-yl)-6-(((trans)-2-(hydroxymethyl)cyclopropyl)ethynyl)benzo[b]thiophene-2-carboxamide] are 1 to 8 µg/mL (≈ 2.49 to 19.9 µM), 1 to 8 µg/mL (≈ 2.49 to 19.9 µM) and 8 to 16 µg/mL (≈ 19.9 to 39.9 µM).

(Values after patent publication US9403758B2, “Antibacterial agents” (Achaogen, Inc., priority 2012, dated 2016).)
